Source: patent US20240139193A1, “COMBINATION THERAPY OF KRAS INHIBITOR AND SHP2 INHIBITOR FOR TREATMENT OF CANCERS” (AMGEN INC., priority 2019, published 2024)

Legend:
KRAS p.G12C models = details: preclinical KRAS p.G12C models; cited from earlier work
KRAS p.G12C tumors [1] = experiment: Preclinical anti-tumor efficacy of AMG 510; assay type: in vivo
KRAS p.G12C tumors [2] = experiment: AMG 510 treatment in immune-competent mice; assay type: in vivo

SMILES | in vivo efficacy (KRAS p.G12C models) | anti-tumor efficacy of chemotherapy and targeted agents in combination (KRAS p.G12C tumors [1]) | outcome in combination with immune checkpoint inhibition (KRAS p.G12C tumors [2])
C=CC(=O)N1CCN(c2ncnc3c(F)c(-c4c(O)cccc4F)c(Cl)cc23)CC1 [ARS-1620] | demonstrates in vivo efficacy |  | 
C=CC(=O)N1CCN(c2nc(=O)n(-c3c(C)ccnc3C(C)C)c3nc(-c4c(O)cccc4F)c(F)cc23)[C@@H](C)C1 [Compound A, 4-((S)-4-acryloyl-2-methylpiperazin-1-yl)-6-fluoro-7-(2-fluoro-6-hydroxyphenyl)-1-(2-isopropyl-4-methylpyridin-3-yl)pyrido[2,3-d]pyrimidin-2(1H)-one] |  | significantly improved | durable cures
